Earlier results on one molecule are cited in US9119409B2, “Water soluble nutritional supplement for ruminants” (priority 2013, dated 2015).

Like-named read-outs stand apart in the source and are kept apart here.

In the case of `O=C([O-])[O-].[Ca+2]` [calcium carbonate], the bioavailability entry (at a pH greater than 4) is recorded as “less than 1%” and the bioavailability entry (at a pH of 1.5) was “around 75%”.
